# Test results from patent US20250042925A1, “Improved Compositions and Methods for Targeting Mitochondria in Cancer Cells” (The Medical College of Wisconsin, Inc., priority 2021, published 2025).
# Columns and labels:
# [1] = test system: mitochondrial respiratory complex I; test: Complex I derived oxygen consumption in permeabilized cells; assay type: cell-based, murine; settings: KPC1242 cell line, 24-hour treatment
# Description: (§1) Cells were plated to Seahorse XF96 cell culture microplates at 20,000 cells/well. Stock compounds in DMSO were diluted in RPMI medium to a final concentration in […] volume, incubated at 37° C. for 24 hours, centrifuged at 200×g for 2 minutes, and conditioned medium removed and replaced with serum-free RPMI […]. Oxygen consumption (OCR) and extracellular flux (ECAR) were measured after injections of oligomycin (1 mg/mL), dinitrophenol […], rotenone […], and antimycin A […]. Analysis was performed by normalizing OCR and ECAR readouts to vehicle controls. Complex I and II activity were analyzed after permeabilization of the cells.
# [2] = test system: AMP-Activated Protein Kinase (AMPK); test: Immunoblot of AMPK Thr172 phosphorylation; assay type: cell-based, murine; settings: 0.7 μM MMe or 3 μM pCF3-MMe
# Description: The functional consequence of inhibiting mitochondria complex I and subsequently OXPHOS is a reduction of overall ATP levels in the cell. The ability of MMe to reduce ATP levels was previously reported in numerous cancer cell types. Thus, further studies were conducted to explore if pCF3-MMe retained similar properties. […] Cells, including cancer cells, must maintain a high ATP:ADP ratio to maintain cellular functions and survival. Moreover, AMP levels rise whenever the ATP:ADP ratio decreases, and an increase in the AMP:ATP ratio signals an energetic crisis in the cell. […]
# Cells were serum-starved for 24 hours followed by compound treatment for 24 hours before lysis in RIPA buffer composed of 50 mM Tris-HCl, pH 7.4, 150 mM NaCl, 0.25% v/v sodium deoxycholate, 1% v/v Nonidet P-40, 0.1% v/v SDS, 1 mM EDTA, 10 mM sodium orthovanadate, 40 mM 0-glycerol phosphate, 20 mM sodium fluoride, and protease inhibitors cocktail set III (Millipore Sigma, Cat #539134). […] Primary antibodies were detected by incubating with secondary horseradish peroxidase-conjugated antibody (Cytiva, Amersham ECL rabbit IgG-HRP, Cat #NA9340). Densitometric quantification of phosphorylated, total or actin protein levels was measured using chemiluminescence and calculated using Alpha View Software.
# [3] = test system: KPC1242, Panc-1, AsPC-1, HCT-116, MDA-MB-231, OVCAR-4, OVCAR-8 cancer cell lines; test: Cell growth (IncuCyte confluence) in cancer cell lines; assay type: cell-based, murine, human; settings: for cell confluency: increasing concentrations 0.1 μM-10 μM, each of the cancer cells
# Source text: (§2) Murine pancreatic cancer cells KPC1242 (David Tuveson, Cold Spring Harbor), human pancreatic cancer cells, Panc-1 (ATCC: CRL-1469), human breast cancer cells MDA-MB-231 (ATCC: CRM-HTB-26), and human pancreatic stellate cells HPSC (Rosa F. Hwang, MD Anderson cancer) were all cultured in DMEM (Gibco ThermoFisher Scientific, Waltham, MA, Cat #11965084) containing 10% v/v fetal bovine serum (Omega Scientific, Inc., Tarzana, CA, Cat #FB-12). Human pancreatic cancer cells AsPC-1 (ATCC: CRL-1682), human ovarian cancer cells OVCAR-8 (NIH: CVCL-1629), and human ovarian cancer cells OVCAR-4 (NIH: CVCL-1627) were all cultured in DMEM (Gibco, Cat #22400089) containing 10% v/v fetal bovine serum (Omega Scientific). Human colon cancer cells HCT-116 (ATCC: CCL-247) were cultured in McCoy's 5A Modified Medium (Gibco, Cat #16600082) containing 10% v/v fetal bovine serum (Omega Scientific). Human pancreatic duct epithelial cells HPNE (ATCC: CRL-4023) were cultured in DMEM and 200 mM L-Glutamine and 7.5% w/v NaCO3 further supplemented with 15% v/v fetal bovine serum, M3-Base A (Incell, San Antonio, TX), 1M D-Glucose (Gibco Cat #J60067.EQE), 100 μg/mL human EGF (Gibco Cat #PHG0313) and 10 mg/mL puromycin (ThermoFisher, Cat #A1113802).
# KPC1242 cells [4] = test: Seahorse Cell Mito Stress Test (oxygen consumption rate); assay type: cell-based, murine; settings: 24 hours treatment, increasing concentrations
# Description: To determine if the newly synthesized variants retain this functional specificity, further studies were conducted to determine if pCF3-MMe effectively impacts mitochondrial function and/or induces bioenergetic stress. KPC1242 cells were treated for 24 hours with increasing concentrations of MMe or pCF3-MMe, and oxygen consumption rate (OCR) was measured as a surrogate for oxidative phosphorylation linked mitochondrial respiration.
# as §1
# [5] = test system: HPNE and HPSC non-transformed cells; test: Cell growth (confluence) of normal non-transformed cells; assay type: cell-based, human; settings: for sensitivity of normal non-transformed cells compared to cancer cells: HPNE, HPSC versus cancer cells
# Description: To test the off-target effects of the refined MMe analogs on normal non-transformed cells, the growth of HPNE cells (FIGS. 11A, 11D, and 11G), used as a surrogate for normal pancreatic ductal epithelium, or normal stromal HPSC cells (FIGS. 11B, 11E, and 11H) were measured in increasing concentrations of MMe, pCF3-MMe, or mCF3-MMe and compared to the vehicle control.
# as §2
# KPC1242 cells [6] = test: Luminescent ATP detection assay; assay type: cell-based, murine; settings: 24 hours; 0.7 μM MMe or 3 μM pCF3-MMe
# Description: The functional consequence of inhibiting mitochondria complex I and subsequently OXPHOS is a reduction of overall ATP levels in the cell. The ability of MMe to reduce ATP levels was previously reported in numerous cancer cell types. Thus, further studies were conducted to explore if pCF3-MMe retained similar properties. […] Cells, including cancer cells, must maintain a high ATP:ADP ratio to maintain cellular functions and survival. Moreover, AMP levels rise whenever the ATP:ADP ratio decreases, and an increase in the AMP:ATP ratio signals an energetic crisis in the cell. This energetic crisis is sensed by the master regulator AMP-Activated Protein Kinase (AMPK), which is activated through Thr172 phosphorylation and controls many signaling pathways ranging from energy metabolism to cellular growth. Therefore, further studies were conducted to evaluate if the reduction in ATP levels induced by MMe or pCF3-MMe is sufficient to activate AMPK.
# Intracellular ATP levels were determined in cell lysates using a Luminescent ATP Detection Assay Kit per the manufacturer's directions (Abcam, Cambridge, UK, Cat #ab113849).
smiles,measurement,setting,value
"N=C(N)NC(=N)NCCCCCCCCCC[P+](c1ccccc1)(c1ccccc1)c1ccccc1.[Br-] [MMe, 10-[(carbamimidamidomethanimidoyl)amino]decyl-triphenylphosphonium bromide, reference compound]",complex I derived OCR,[1],decreased complex I derived OCR
same,AMPK activation (Thr172 phosphorylation),[2],significant increase in AMPK activation
same,cell confluency,[3],decreased in a concentration-dependent manner
same,"basal OCR, ATP-linked respiration, and maximal respiratory capacity",KPC1242 cells [4],concentration-dependent decrease
same,sensitivity of normal non-transformed cells compared to cancer cells,[5],more than a log less sensitive
same,levels of ATP,KPC1242 cells [6],significantly reduced
"N=C(N)NC(=N)NCCCCCCCCCC[P+](c1ccc(C(F)(F)F)cc1)(c1ccc(C(F)(F)F)cc1)c1ccc(C(F)(F)F)cc1.[Br-] [pCF3-MMe, (10-(3-carbamimidoylguanidino)decyl)tris(4-(trifluoromethyl)phenyl)phosphonium bromide]",complex I derived OCR,[1],decreased complex I derived OCR
same,AMPK activation (Thr172 phosphorylation),[2],significant increase in AMPK activation
same,efficacy compared to MMe in several types of cancer,[3],only a slight change in efficacy
same,cell confluency,[3],decreased in a concentration-dependent manner
same,"basal OCR, ATP-linked respiration, and maximal respiratory capacity",KPC1242 cells [4],concentration-dependent decrease
same,reduction in toxicity to normal cells compared to MMe,[5],~10 fold
same,sensitivity of normal non-transformed cells compared to cancer cells,[5],more than a log less sensitive
same,toxic effects towards non-transformed HPNE and HPSC-1 cells,[5]; compared to the parent MMe and the mCF3-MMe analog,least toxic effects
same,levels of ATP,KPC1242 cells [6],significantly reduced
